# From patent US5846976A, “Androstenone derivative” (Glaxo Wellcome Inc., priority 1996, dated 1998)
# What was measured:
# [1] = system: bovine adrenal 3β-hydroxy-Δ^5-steroid dehydrogenase/3-keto-Δ^5-steroid isomerase (3BHSD); details: Tan et al. 1987; Brandt and Levy 1989; cited from earlier work
# [2] = system: porcine granulosa cell 3β-hydroxy-Δ^5-steroid dehydrogenase/3-keto-Δ^5-steroid isomerase (3BHSD); details: Tan et al. 1987; Brandt and Levy 1989; cited from earlier work
# [3] = McConnell 1990; Rasmusson et al. 1984; cited from earlier work
# [4] = target: T1, human type 1 5α-reductase (Homo sapiens, UniProt P18405); assay: Steroid 5α-reductase type 1 inhibition (microsomes, conversion of testosterone to DHT); format: biochemical
# T1 construct: made in house; host or cells: SF9 insect cells infected with recombinant baculovirus (microsomes)
# T1 sequence (P18405 1-259): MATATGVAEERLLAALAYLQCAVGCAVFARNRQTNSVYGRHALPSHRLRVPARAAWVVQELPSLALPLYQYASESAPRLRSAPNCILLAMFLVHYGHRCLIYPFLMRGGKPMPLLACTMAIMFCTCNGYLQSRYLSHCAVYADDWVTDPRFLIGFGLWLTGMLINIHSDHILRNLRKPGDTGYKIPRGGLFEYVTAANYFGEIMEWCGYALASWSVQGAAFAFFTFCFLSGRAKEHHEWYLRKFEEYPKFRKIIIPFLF
# Description: (§1) Enzyme activies may be determined using microsomes derived from: 1) prostate tissue from benign prostatic hyperplasia (BPH) patients; 2) recombinant baculovirus infected SF9 cells that express human type 1 5α-reductase; or 3) recombinant baculovirus infected SF9 cells that express human type 2 5α-reductase. Microsomes were prepared by homogenization of the tissue or cells, followed by differential centrifugation of the homogenate. Microsome extracts were incubated with varying concentrations of [1,2,6,7-3H]-testosterone, 1 mM NADPH, and varying amounts of the compounds of Formula I, i.e. a test compound, in buffer containing a NADPH regenerating system capable of maintaining NADPH concentrations for a period of time within the range 0.5-240 minutes. Corresponding incubations were carried out with no test compound as a control study. For clone 1 IC50 measurements, assay components except testosterone were preincubated for 10 minutes at pH 7.0, and following the addition of 100 nM testosterone the assays were allowed to proceed for 10-120 minutes. For clone 2 IC50 measurements, assay components except testosterone were preincubated for 20 minutes at pH 6.0, and following the addition of 8 nM testosterone the assays were allowed to proceed for 20-40 minutes. […]
# [5] = target: T2, human type 2 5α-reductase (Homo sapiens, UniProt P31213); assay: Steroid 5α-reductase type 2 inhibition (microsomes, conversion of testosterone to DHT); format: biochemical
# T2 construct: made in house; host or cells: SF9 insect cells infected with recombinant baculovirus (microsomes)
# T2 sequence (P31213 1-254): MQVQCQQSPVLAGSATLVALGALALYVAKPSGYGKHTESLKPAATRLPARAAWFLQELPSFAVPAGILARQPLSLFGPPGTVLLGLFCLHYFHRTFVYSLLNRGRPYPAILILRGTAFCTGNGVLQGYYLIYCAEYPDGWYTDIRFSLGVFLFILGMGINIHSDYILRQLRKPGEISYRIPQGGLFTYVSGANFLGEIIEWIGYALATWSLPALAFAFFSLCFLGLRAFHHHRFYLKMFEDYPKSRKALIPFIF
# Description: as §1
# [6] = target: T3, Human Adrenal 3BHSD (Homo sapiens, UniProt P26439); assay: Human adrenal 3β-hydroxy-Δ^5-steroid dehydrogenase/3-keto-Δ^5-steroid isomerase inhibition (microsomes, conversion of DHEA to androstenedione); format: biochemical
# T3 construct: microsomes derived from human adrenal tissues; from tissue; host or cells: human adrenal tissue (microsomes)
# T3 sequence (P26439 1-372): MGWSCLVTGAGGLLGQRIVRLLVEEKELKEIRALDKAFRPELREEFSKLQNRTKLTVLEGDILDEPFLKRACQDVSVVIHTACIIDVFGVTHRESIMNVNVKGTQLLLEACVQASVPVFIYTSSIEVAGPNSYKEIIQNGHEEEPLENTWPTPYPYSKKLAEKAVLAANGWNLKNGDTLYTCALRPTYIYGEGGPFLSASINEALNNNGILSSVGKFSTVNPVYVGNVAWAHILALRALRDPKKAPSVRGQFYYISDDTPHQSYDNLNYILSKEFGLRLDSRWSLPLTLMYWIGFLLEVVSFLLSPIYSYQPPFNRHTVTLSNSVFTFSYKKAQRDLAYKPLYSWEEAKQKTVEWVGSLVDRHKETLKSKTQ
# Description: Enzyme activities are measured using microsomes derived from human adrenal tissues. Microsomes were prepared by homogenization of the tissue followed by differential centrifugation of the homogenate. Microsome extracts were incubated with varying concentrations of dehydroepiandrosterone (DHEA), 1 mM NAD+, and varying amounts of the compound of Formula (I), i.e. a test compound, in pH 7.5 buffer for a period of time within the range of 1 to 60 minutes. Corresponding incubations were carried out with no test compound as a control study. The percentage of conversion of DHEA to androstenedione in the presence of test compounds compared to the corresponding conversion in the control study was estimated using HPLC with radiochemical detection.
# [7] = system: 5α-reductase; assay: Potency compared to finasteride and SKF105657
# [8] = Half-life compared to finasteride and SKF105657
Compound,inhibition of bovine adrenal 3BHSD [1],inhibition of porcine granulosa cell 3BHSD [2],hepatotoxicity [3],IC50 [4],IC50 [5],Ki [6],potency [7],half-life [8]
CCN(CC)C(=O)[C@H]1CC[C@H]2[C@@H]3CC[C@H]4N(C)C(=O)CC[C@]4(C)[C@H]3CC[C@]12C [4-MA],potent inhibition,potent inhibition,hepatotoxicity,–,–,–,–,–
"C[C@]12C=CC(=O)N[C@@H]1CC[C@@H]1[C@@H]2CC[C@]2(C)[C@@H](C(=O)Nc3cc(C(F)(F)F)ccc3C(F)(F)F)CC[C@@H]12 [compound of formula (I), 17β-N-(2,5-bis(Trifluoromethyl))phenylcarbamoyl-4-aza-5α-androst-1-en-3-one]",–,–,–,< 1 nM,< 1 nM,> 1000 nM,surprisingly long half-life and potency compared to finasteride and SKF105657,surprisingly long half-life
